According to the NIST ThermoML archive (doi:10.1016/j.fluid.2019.06.004):
Numbers after ± are expanded uncertainties.

Key:
[1] = Molar enthalpy of transition or fusion; conditions: DSC

Normal melting temperature (Crystal): 188.96 ± 2.2 °C
Triple point temperature (Crystal 2, DSC): 421.11 ± 1.2 K
Molar enthalpy of transition or fusion ([1]; Crystal 2): 0.363 ± 0.043 kcal/mol
Molar enthalpy of transition or fusion ([1]; Crystal): 6.09 ± 0.502 kcal/mol
SMILES: NC(=O)c1cnccn1 [pyrazinecarboxamide]
